Laboratory results reported in patent EP4603105A1, “PHARMACEUTICAL COMPOSITION CONTAINING CYCLIC COMPOUND HAVING SELECTIVE KRAS INHIBITORY EFFECT AGAINST HRAS AND NRAS” (CHUGAI SEIYAKU KABUSHIKI KAISHA, priority 2022, dated 2024).
pIC50: −log10 of the molar value. Read-outs that look alike come from different tables or passages of the source.

What was measured:
[1] = tested on: human lung cancer strain NCI-H441; assay type: cell-based
Summary of the method: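 Proliferation was scored by […] measured after the reagent was added to cultures kept at 37°C in 5% carbon dioxide.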

HRAS wild-type protein = HRAS wild-type protein (Homo sapiens, UniProt P01112); assay: Binding to HRAS by surface plasmon resonance (SPR), KD and KD ratio to KRAS; settings: ratio of KD for HRAS wild-type protein to KD for KRAS
Sequence of HRAS wild-type protein (P01112 whole entry): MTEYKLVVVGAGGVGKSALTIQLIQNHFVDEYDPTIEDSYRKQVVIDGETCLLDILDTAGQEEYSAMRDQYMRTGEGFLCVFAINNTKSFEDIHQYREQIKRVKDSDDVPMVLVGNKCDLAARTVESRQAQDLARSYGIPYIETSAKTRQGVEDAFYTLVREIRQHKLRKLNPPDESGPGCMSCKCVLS
Summary of the method: (§1)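 Compound binding is evaluated by SPR single-cycle kinetics, with concentrations added intermittently from low to high for 75 s each. Target surfaces carry GDP-loaded biotinylated Avi-RAS at about 100–300 RU, regenerated after each cycle; temperature 30°C. A 1:1 binding model gives KD.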

[2] = biological target: GDP-bound NRAS wild-type protein (Homo sapiens, UniProt P01111); assay: Binding to NRAS by surface plasmon resonance (SPR), KD and KD ratio to KRAS; settings: ratio of KD for GDP-bound NRAS wild-type protein to KD for KRAS
Sequence of GDP-bound NRAS wild-type protein (P01111 whole entry): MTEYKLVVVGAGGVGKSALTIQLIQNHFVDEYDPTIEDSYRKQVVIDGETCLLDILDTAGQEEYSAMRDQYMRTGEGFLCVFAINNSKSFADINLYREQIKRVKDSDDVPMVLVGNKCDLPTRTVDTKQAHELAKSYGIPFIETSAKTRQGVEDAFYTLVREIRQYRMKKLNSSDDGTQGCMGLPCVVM
Summary of the method: as §1

[3] = NCI-H441 cells, 4 days, CellTiter-Glo, read-out: NCl-H441 IC50

Row | SMILES | pIC50 [1] | HRAS /KRAS (HRAS wild-type protein) | NRAS /KRAS [2] | pIC50 [1, 3]
1 | CCO[C@@H]1C[C@H]2C(=O)NC3(CC(C)(C)C3)C(=O)N(C)[C@@H](C3CCCC3)C(=O)N(C)[C@H](C(=O)N(C)C)CC(=O)N(C)[C@@H](CC(F)(F)F)C(=O)N[C@@H]([C@@H](C)CC)C(=O)N(C)CC(=O)N(C)[C@H]3C/C=C\CCN(C3=O)[C@@H](Cc3ccc(C(F)(F)F)cc3)C(=O)N(C)CC(=O)N[C@@H](CCc3ccc(C(F)(F)F)c(Cl)c3)C(=O)N2C1 [PP2833] | 8.42 | A (a compound having 10 or more and less than 20 is denoted as A) | A (a compound having 10 or more and less than 20 is denoted as A) | 
2 | CCO[C@@H]1C[C@H]2C(=O)NC3(CC(C)(C)C3)C(=O)N(C)[C@@H](C3CCCC3)C(=O)N(C)[C@H](C(=O)N(C)CC)CC(=O)N(C)[C@@H](COC)C(=O)N[C@@H]([C@@H](C)CC)C(=O)N(C)CC(=O)N(C)[C@H]3C/C=C\CCN(C3=O)[C@@H](Cc3ccc(C(F)(F)F)cc3)C(=O)N(C)CC(=O)N[C@@H](CCc3ccc(Cl)c(Cl)c3)C(=O)N2C1 [PP2835] | 7.89 | A (a compound having 10 or more and less than 20 is denoted as A) | A (a compound having 10 or more and less than 20 is denoted as A) | 
3 | CCO[C@@H]1C[C@H]2C(=O)NC3(CC(C)(C)C3)C(=O)N(C)[C@@H](C3CCCC3)C(=O)N(C)[C@H](C(=O)N(C)CC)CC(=O)N(C)[C@@H](COC)C(=O)N[C@@H]([C@@H](C)CC)C(=O)N(C)CC(=O)N(C)[C@H]3C/C=C\CCN(C3=O)[C@@H](Cc3ccc(C(F)(F)F)cc3)C(=O)N(C)CC(=O)N[C@@H](CCc3ccc(C(F)(F)F)c(Cl)c3)C(=O)N2C1 [PP2836] | 8.29 | A (a compound having 10 or more and less than 20 is denoted as A) | A (a compound having 10 or more and less than 20 is denoted as A) | 
4 | CCO[C@@H]1C[C@H]2C(=O)NC3(CCCC3)C(=O)N(C)[C@@H](C3CCCC3)C(=O)N(C)[C@H](C(=O)N(C)C)CC(=O)N(C)[C@@H](CC(C)C)C(=O)N[C@@H]([C@@H](C)CC)C(=O)N(C)CC(=O)N(C)[C@H]3C/C=C\CCN(C3=O)[C@@H](Cc3ccc(C(F)(F)F)cc3)C(=O)N(C)CC(=O)N[C@@H](CCc3ccc(Cl)c(Cl)c3)C(=O)N2C1 [PP2837] | 7.89 | A (a compound having 10 or more and less than 20 is denoted as A) | AA (a compound having 20 or more is denoted as AA) | 
5 | CCO[C@@H]1C[C@H]2C(=O)NC3(CCCC3)C(=O)N(C)[C@@H](C3CCCC3)C(=O)N(C)[C@H](C(=O)N(C)C)CC(=O)N(C)[C@@H](CC(C)C)C(=O)N[C@@H]([C@@H](C)CC)C(=O)N(C)CC(=O)N(C)[C@H]3C/C=C\CCN(C3=O)[C@@H](Cc3ccc(C(F)(F)F)cc3)C(=O)N(C)CC(=O)N[C@@H](CCc3ccc(C(F)(F)F)c(Cl)c3)C(=O)N2C1 [PP2838] | 8.10 | A (a compound having 10 or more and less than 20 is denoted as A) | AA (a compound having 20 or more is denoted as AA) | 
6 | CCCC[C@H]1C(=O)N[C@@H]([C@@H](C)CC)C(=O)N(C)CC(=O)N(C)[C@H]2C/C=C\CCN(C2=O)[C@@H](Cc2ccc(C(F)(F)F)cc2)C(=O)N(C)CC(=O)N[C@@H](CCc2ccc(C(F)(F)F)c(OC)c2)C(=O)N2C[C@H](OCC)C[C@H]2C(=O)NC2(CCC2)C(=O)N(C)[C@@H](C2CCCC2)C(=O)N(C)[C@H](C(=O)N(C)CC)CC(=O)N1C [PP2840] | 8.08 | A (a compound having 10 or more and less than 20 is denoted as A) | A (a compound having 10 or more and less than 20 is denoted as A) | 
7 | CCO[C@@H]1C[C@H]2C(=O)NC3(CCC3)C(=O)N(C)[C@@H](C3CCCC3)C(=O)N(C)[C@H](C(=O)N(C)C)CC(=O)N(C)[C@@H](CC3CCCC3)C(=O)N[C@@H]([C@@H](C)CC)C(=O)N(C)CC(=O)N(C)[C@H]3C/C=C\CCN(C3=O)[C@@H](Cc3ccc(C(F)(F)F)cc3)C(=O)N(C)CC(=O)N[C@@H](CCc3ccc(C(F)(F)F)c(Cl)c3)C(=O)N2C1 [PP2842] | 8.14 | B (a compound having 3 or more and less than 10 is denoted as B) | A (a compound having 10 or more and less than 20 is denoted as A) | 
8 | C#CC[C@H]1C(=O)N[C@@H]([C@@H](C)CC)C(=O)N(C)CC(=O)N(C)[C@H]2C/C=C\CCN(C2=O)[C@@H](Cc2ccc(C(F)(F)F)cc2)C(=O)N(C)CC(=O)N[C@@H](CCc2ccc(Cl)c(Cl)c2)C(=O)N2C[C@H](OCC)C[C@H]2C(=O)NC2(CC(C)(C)C2)C(=O)N(C)[C@@H](C2CCCC2)C(=O)N(C)[C@H](C(=O)N(C)CC)CC(=O)N1C [PP2843] | 7.75 | A (a compound having 10 or more and less than 20 is denoted as A) | A (a compound having 10 or more and less than 20 is denoted as A) | 
9 | C#CC[C@H]1C(=O)N[C@@H]([C@@H](C)CC)C(=O)N(C)CC(=O)N(C)[C@H]2C/C=C\CCN(C2=O)[C@@H](Cc2ccc(C(F)(F)F)cc2)C(=O)N(C)CC(=O)N[C@@H](CCc2ccc(C(F)(F)F)c(Cl)c2)C(=O)N2C[C@H](OCC)C[C@H]2C(=O)NC2(CC(C)(C)C2)C(=O)N(C)[C@@H](C2CCCC2)C(=O)N(C)[C@H](C(=O)N(C)CC)CC(=O)N1C [PP2844] | 8.12 | A (a compound having 10 or more and less than 20 is denoted as A) | A (a compound having 10 or more and less than 20 is denoted as A) | 
10 | CCO[C@@H]1C[C@H]2C(=O)NC3(CCC3)C(=O)N(C)[C@@H](C3CCCC3)C(=O)N(C)[C@H](C(=O)N(C)CC)CC(=O)N(C)[C@@H](CC(C)C)C(=O)N[C@@H]([C@@H](C)CC)C(=O)N(C)CC(=O)N(C)[C@H]3C/C=C\CCN(C3=O)[C@@H](Cc3ccc(C(F)(F)F)cc3)C(=O)N(C)CC(=O)N[C@@H](CCc3ccc(C(F)(F)F)c(OC)c3)C(=O)N2C1 [PP2846] | 8.29 | A (a compound having 10 or more and less than 20 is denoted as A) | AA (a compound having 20 or more is denoted as AA) | 
11 | CCC[C@H]1C(=O)N[C@@H]([C@@H](C)CC)C(=O)N(C)CC(=O)N(C)[C@H]2C/C=C\CCN(C2=O)[C@@H](Cc2ccc(C(F)(F)F)cc2)C(=O)N(C)CC(=O)N[C@@H](CCc2ccc(CC)c(Cl)c2)C(=O)N2C[C@H](OCC)C[C@H]2C(=O)NC2(CC(C)(C)C2)C(=O)N(C)[C@@H](C2CCCC2)C(=O)N(C)[C@H](C(=O)N(C)C)CC(=O)N1C [PP2848] | 7.54 | A (a compound having 10 or more and less than 20 is denoted as A) | A (a compound having 10 or more and less than 20 is denoted as A) | 
12 | CCC[C@H]1C(=O)N[C@@H]([C@@H](C)CC)C(=O)N(C)CC(=O)N(C)[C@H]2C/C=C\CCN(C2=O)[C@@H](Cc2ccc(C(F)(F)F)cc2)C(=O)N(C)CC(=O)N[C@@H](CCc2cc(F)c3c(c2)CCC3)C(=O)N2C[C@H](OCC)C[C@H]2C(=O)NC2(CC(C)(C)C2)C(=O)N(C)[C@@H](C2CCCC2)C(=O)N(C)[C@H](C(=O)N(C)C)CC(=O)N1C [PP2849] | 7.55 | A (a compound having 10 or more and less than 20 is denoted as A) | A (a compound having 10 or more and less than 20 is denoted as A) | 
13 | CCC[C@H]1C(=O)N[C@@H]([C@@H](C)CC)C(=O)N(C)CC(=O)N(C)[C@H]2C/C=C\CCN(C2=O)[C@@H](Cc2ccc(C(F)(F)F)cc2)C(=O)N(C)CC(=O)N[C@@H](CCc2ccc(C(F)(F)F)c(C3CC3)c2)C(=O)N2C[C@H](OCC)C[C@H]2C(=O)NC2(CC(C)(C)C2)C(=O)N(C)[C@@H](C2CCCC2)C(=O)N(C)[C@H](C(=O)N(C)C)CC(=O)N1C [PP2852] | 8.06 | B (a compound having 3 or more and less than 10 is denoted as B) | B (a compound having 3 or more and less than 10 is denoted as B) | 
14 | CCC[C@H]1C(=O)N[C@@H]([C@@H](C)CC)C(=O)N(C)CC(=O)N(C)[C@H]2C/C=C\CCN(C2=O)[C@@H](Cc2ccc(C(F)(F)F)cc2)C(=O)N(C)CC(=O)N[C@@H](CCc2ccc(C3CC3)c(OC)c2)C(=O)N2C[C@H](OCC)C[C@H]2C(=O)NC2(CC(C)(C)C2)C(=O)N(C)[C@@H](C2CCCC2)C(=O)N(C)[C@H](C(=O)N(C)C)CC(=O)N1C [PP2853] |  | A (a compound having 10 or more and less than 20 is denoted as A) | A (a compound having 10 or more and less than 20 is denoted as A) | 7.40
15 | CCC[C@H]1C(=O)N[C@@H]([C@@H](C)CC)C(=O)N(C)CC(=O)N(C)[C@H]2C/C=C\CCN(C2=O)[C@@H](Cc2ccc(C(F)(F)F)cc2)C(=O)N(C)CC(=O)N[C@@H](CCc2ccc(C3CC3)c(C)c2)C(=O)N2C[C@H](OCC)C[C@H]2C(=O)NC2(CC(C)(C)C2)C(=O)N(C)[C@@H](C2CCCC2)C(=O)N(C)[C@H](C(=O)N(C)C)CC(=O)N1C [PP2855] |  | A (a compound having 10 or more and less than 20 is denoted as A) | A (a compound having 10 or more and less than 20 is denoted as A) | 7.42
16 | CCC[C@H]1C(=O)N[C@@H]([C@@H](C)CC)C(=O)N(C)CC(=O)N(C)[C@H]2C/C=C\CCN(C2=O)[C@@H](Cc2ccc(C(F)(F)F)cc2)C(=O)N(C)CC(=O)N[C@@H](CCc2ccc(CC)c(F)c2)C(=O)N2C[C@H](OCC)C[C@H]2C(=O)NC2(CC(C)(C)C2)C(=O)N(C)[C@@H](C2CCCC2)C(=O)N(C)[C@H](C(=O)N(C)C)CC(=O)N1C [PP2856] |  | A (a compound having 10 or more and less than 20 is denoted as A) | A (a compound having 10 or more and less than 20 is denoted as A) | 7.47
